# Patent publication US8211445B2, “PSM peptides as vaccine targets against methicillin-resistant Staphylococcus” (The United States of America, as represented by the …, priority 2007, dated 2012)
# Residues, ends and D or L forms follow the SMILES beside them.
# System: sheep red blood cells
# Test: Hemolysis of sheep red blood cells
# Format: cell-based
# Settings: 10 μg/ml, compared to other PSMs (FIG. 21G)
# Description: FIG. 8 includes several graphs showing hemolytic activities of PSMs. […] In FIGS. 8A and 8B, the data are mean±SEM of three independent measurements. P values are vs. DMSO in FIG. 8A and vs. wild-type in FIG. 8B. Hemolytic activity was determined by incubating samples with a 2% (v/v) suspension of sheep red blood cells and incubation at 37° C. for 1 hour. Synthetic PSM peptides or filtered bacterial overnight culture supernatants were diluted in PBS and added to sheep erythrocytes at a final concentration of 10 μg/ml for the peptides and 1:200 for culture filtrates.
# Hemolysis: Hemolytic activity of PSM peptides was determined by incubating samples with a 2% (v/v) sheep red blood cells and incubation for 1 h at 37° C. as described (Wang et al., Nature Med. 13:1510-1514, 2007). Hemolytic activity of S. aureus wild-type and psm-mec deletion strains was assessed by streaking on sheep blood agar plates.
smiles,measurement,value
CC[C@H](C)[C@H](NC(=O)[C@H](CS)NC(=O)[C@@H](NC(=O)[C@H](CCCCN)NC(=O)[C@@H](NC(=O)[C@H](CC(C)C)NC(=O)[C@H](CC(=O)O)NC(=O)[C@@H](NC(=O)[C@@H](NC(=O)[C@H](CO)NC(=O)[C@@H](NC(=O)[C@@H](NC(=O)[C@@H](NC(=O)CNC(=O)[C@@H](NC(=O)[C@H](Cc1ccccc1)NC(=O)[C@H](CC(=O)O)NC(=O)[C@H](CCSC)NC=O)[C@@H](C)O)C(C)C)[C@@H](C)CC)[C@@H](C)O)[C@@H](C)CC)[C@@H](C)CC)[C@@H](C)CC)[C@@H](C)O)C(=O)N[C@@H](CCC(N)=O)C(=O)N[C@@H](C)C(=O)N[C@@H](Cc1ccccc1)C(=O)NCC(=O)O [PSM-mec] (HELM PEPTIDE1{[O=C[*:2]].M.D.F.T.G.V.I.T.S.I.I.D.L.I.K.T.C.I.Q.A.F.G}$$$$V2.0),lysis of sheep erythrocytes,intermediate range
